Experimental data: the supplement of paper PMC10307832

Legend:
Assay in all cases: relative viability (nuclei count vs DMSO), 5 days (fraction); higher = more cells survive
Selisistat + Trametinib = compound: C1CC(C2=C(C1)C3=C(N2)C=CC(=C3)Cl)C(=O)N [Selisistat] + CC(=O)Nc1cccc(-n2c(=O)n(C3CC3)c(=O)c3c(Nc4ccc(I)cc4F)n(C)c(=O)c(C)c32)c1 [Trametinib] (partner 0.02 µM)
Summary of the method: (§1)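 Relative viability is defined as nuclei in treated wells over nuclei in vehicle wells. Duplicate plates were run and medians reported. Lung cancer cell lines in 1536-well plates were dosed by pin tool one day after seeding, with one drug or with a fixed anchor-drug dose plus five library-drug doses (not always all listed) in √10 steps, and nuclei were counted after 5 days.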

Serdemetan + Vorinostat = compound: c1ccc2c(CCNc3ccc(Nc4ccncc4)cc3)c[nH]c2c1 [Serdemetan] + O=C(CCCCCCC(=O)Nc1ccccc1)NO [Vorinostat] (partner 1 µM)
Summary of the method: as §1

Selisistat + Alpelisib = compound: C1CC(C2=C(C1)C3=C(N2)C=CC(=C3)Cl)C(=O)N [Selisistat] + Cc1nc(NC(=O)N2CCC[C@H]2C(N)=O)sc1-c1ccnc(C(C)(C)C(F)(F)F)c1 [Alpelisib] (partner 2 µM)
Summary of the method: as §1

Selisistat + Phenformin = compound: C1CC(C2=C(C1)C3=C(N2)C=CC(=C3)Cl)C(=O)N [Selisistat] + N=C(N)NC(=N)NCCc1ccccc1 [Phenformin] (partner 250 µM)
Summary of the method: as §1

| Cell Line | relative viability (Selisistat + Trametinib; first compound 0.4 µM) | relative viability (Selisistat + Trametinib; first compound 1.265 µM) | relative viability (Selisistat + Trametinib; first compound 4 µM) | relative viability (Selisistat + Trametinib; first compound 12.65 µM) | relative viability (Selisistat + Trametinib; first compound 40 µM) | relative viability (Serdemetan + Vorinostat; first compound 0.04 µM) | relative viability (Serdemetan + Vorinostat; first compound 0.1265 µM) | relative viability (Serdemetan + Vorinostat; first compound 0.4 µM) | relative viability (Serdemetan + Vorinostat; first compound 1.265 µM) | relative viability (Serdemetan + Vorinostat; first compound 4 µM) | relative viability (Selisistat + Alpelisib; first compound 0.4 µM) | relative viability (Selisistat + Alpelisib; first compound 1.265 µM) | relative viability (Selisistat + Alpelisib; first compound 4 µM) | relative viability (Selisistat + Alpelisib; first compound 12.65 µM) | relative viability (Selisistat + Alpelisib; first compound 40 µM) | relative viability (Selisistat + Phenformin; first compound 0.4 µM) | relative viability (Selisistat + Phenformin; first compound 1.265 µM) | relative viability (Selisistat + Phenformin; first compound 4 µM) | relative viability (Selisistat + Phenformin; first compound 12.65 µM) | relative viability (Selisistat + Phenformin; first compound 40 µM) |
| --- | --- | --- | --- | --- | --- | --- | --- | --- | --- | --- | --- | --- | --- | --- | --- | --- | --- | --- | --- | --- |
| LU99A | 0.596 | 0.561 | 0.552 | 0.52 | 0.575 | 0.535 | 0.459 | 0.379 | 0.211 | 0.249 | 0.538 | 0.553 | 0.565 | 0.505 | 0.514 | 0.897 | 0.956 | 0.956 | 0.806 | 0.832 |
| LXF-289 | 0.72 | 0.727 | 0.646 | 0.69 | 0.731 | 0.754 | 0.77 | 0.718 | 0.656 | 0.646 | 1.13 | 1.04 | 0.989 | 1 | 0.984 | 0.503 | 0.517 | 0.475 | 0.499 | 0.538 |
| NCI-H23 | 0.402 | 0.318 | – | 0.427 | 0.485 | 0.664 | 0.695 | 0.643 | – | 0.517 | 0.811 | 0.871 | – | 0.662 | 0.688 | 0.731 | 0.824 | 0.658 | 0.773 | 0.786 |
| NCI-H522 | 0.651 | 0.653 | 0.745 | 0.751 | 0.589 | 0.982 | 0.955 | 0.923 | 0.831 | 0.799 | – | – | – | – | – | 0.695 | 0.61 | 0.469 | 0.61 | 0.687 |
| NCI-H1299 | – | – | – | – | – | – | – | – | – | – | 1.02 | 1.05 | 1.14 | 1.03 | 1.03 | – | – | – | – | – |
| NCI-H1563 | – | – | – | – | – | – | – | – | – | – | 0.834 | 0.889 | 0.853 | 0.778 | 0.773 | 0.662 | 0.658 | 0.63 | 0.638 | 0.585 |
| NCI-H1623 | – | – | – | – | – | – | – | – | – | – | – | – | – | – | – | 0.557 | 0.556 | 0.413 | 0.579 | 0.533 |
| NCI-H1648 | 0.448 | 0.399 | – | 0.453 | 0.431 | – | 0.552 | 0.329 | 0.398 | 0.252 | – | – | – | – | – | – | – | – | – | – |
| NCI-H1650 | 0.564 | 0.572 | 0.531 | 0.577 | 0.465 | 0.406 | 0.663 | 0.518 | 0.291 | 0.42 | – | – | – | – | – | 0.375 | 0.448 | 0.336 | 0.361 | 0.465 |
| NCI-H1703 | – | – | – | – | – | – | – | – | – | – | 0.28 | 0.385 | 0.265 | 0.336 | 0.397 | – | – | – | – | – |
| NCI-H1792 | 0.493 | 0.38 | – | 0.44 | 0.44 | – | – | – | – | – | 0.696 | 0.603 | – | 0.685 | 0.693 | 0.301 | 0.357 | – | 0.324 | 0.224 |
| NCI-H2342 | 0.931 | 0.826 | 0.801 | 0.736 | 0.988 | 0.705 | 0.731 | 1.07 | 0.908 | 0.478 | – | – | – | – | – | 0.562 | 0.54 | 0.504 | 0.601 | 0.61 |
| SW 900 | 1.03 | 0.87 | 0.78 | 0.995 | 0.78 | 0.485 | 0.569 | 0.53 | 0.393 | 0.455 | – | – | – | – | – | 0.632 | 0.621 | 0.468 | 0.484 | 0.641 |
